≈ marks a conversion by molar mass, not a printed value.

One data set concerns Mycolicibacterium smegmatis. The experiment in a line: Antitubercular activity against Mycobacterium smegmatis ATCC 607 incubated at 37 degC for 7 days by resazurin dye based fluorometry. It counts as functional. As to conditions: ATCC 607, 168 h. On the technique in general: Resazurin is reduced to fluorescent resorufin, in cell work by metabolically active cells.
In general, IC90 refers to the concentration needed for an effect of 90%. For the molecule `COc1nc2ccc(Br)cc2cc1C(c1ccoc1)C(O)(CCN(C)C)c1ccccc1` (racemic), the IC90 was 0.06 to 1.57 µg/mL (≈ 0.121 to 3.17 µM).

For a further data set, the system named is Homo sapiens. The experiment in a line: Terminal half life in healthy human subjects dosed as single 400 mg dose on Day 1 followed by PK sampling (Days 1 to 14). The following applies: in vivo. It counts as ADME, organism-based.
As for `COc1nc2ccc(Br)cc2cc1[C@@H](c1ccccc1)[C@@](O)(CCN(C)C)c1cccc2ccccc12` [BEDAQUILINE], the beta t1/2 was in the range of 5 to 6 months.

Another data set relates to Mycobacterium tuberculosis. Nature of the data set: Growth inhibition of Mycobacterium tuberculosis H37Rv under aerobic condition after 4 days by MABA method. The following applies: 96 h. It counts as functional.
The term MIC90 denotes an inhibitory concentration at the 90% level, which refers to growth in some studies and to a panel of isolates in others. Take `COc1ncccc1C(c1cc2cc(Br)ccc2nc1OC)C(O)(CCN(C)C)c1cccc2c1OCO2` (mixture of isomers): the MIC90 is 0.24 µg/mL.

The next data set concerns Vero. Nature of the data set: Cytotoxicity against African green monkey Vero cells after 72 hrs by MTS-PMS assay. The class given is cell-based. The following applies: Chlorocebus sabaeus. (Tetrazolium assays rely on reduction of a dye to a coloured formazan, in cell work by metabolically active cells.)
As usually defined, the IC50 is the concentration at which inhibition is half-maximal. `CCSc1ccc([C@H](c2cc3cc(Br)ccc3nc2OC)[C@@](O)(CCN(C)C)c2cccc(F)c2)cn1` had an IC50 of more than 10 µg/mL.

Regarding `COc1nc2ccc(Br)cc2cc1[C@@H](c1ccnc(OC)c1OC)[C@@](O)(CCN(C)C)c1cccc(OC(F)F)c1`, the IC50 was more than 10 µg/mL.

Regarding `COc1nc2ccc(Br)cc2cc1[C@@H](c1cccnc1N(C)C)[C@@](O)(CCN(C)C)c1cccc(F)c1`, the IC50 was more than 10 µg/mL.

On to `COc1cc([C@H](c2cc3cc(Br)ccc3nc2OC)[C@@](O)(CCN(C)C)c2cccc(F)c2)cnc1OC`, for which the IC50 was more than 10 µg/mL.

The molecule `COc1nc2ccc(Br)cc2cc1[C@@H](c1ccccc1)[C@@](O)(CCN(C)C)c1cccc2ccccc12` [BEDAQUILINE] returned an IC50 of more than 10 µg/mL.

Regarding `COc1nc2ccc(Br)cc2cc1[C@@H](c1cncc(C)c1)[C@@](O)(CCN(C)C)c1cccc(F)c1`, the IC50 was more than 10 µg/mL.

For the molecule `COc1nc2ccc(Br)cc2cc1[C@@H](c1ccc(N(C)C)nc1)[C@@](O)(CCN(C)C)c1cccc(F)c1`, the IC50 was more than 10 µg/mL.

Consider `COc1nc2ccc(Br)cc2cc1[C@@H](c1cc(C)c(C)s1)[C@@](O)(CCN(C)C)c1cccc(F)c1`, for which the IC50 was more than 10 µg/mL.

Consider `COc1nc2ccc(Br)cc2cc1[C@@H](c1ccnc(OC)c1OC)[C@@](O)(CCN(C)C)c1cccc(C#N)c1`, for which the concentration for half-maximal inhibition (IC50) is more than 10 µg/mL.

With `COc1nc2ccc(Br)cc2cc1[C@@H](c1ccnc(OC)c1OC)[C@@](O)(CCN(C)C)c1cccc(C)c1`, the IC50 is more than 10 µg/mL.

Source of the values: ChEMBL document CHEMBL4177672 (Bioorg Med Chem Lett, 2017).
